Laboratory results taken from US20260116868A1 (Arcus Biosciences, Inc., priority 2023, published 2026).

Target: T1, Cbl-b (Homo sapiens, UniProt Q13191)
T1 construct: biotin (biotinylated protein)
Test: Cbl-b probe displacement HTRF binding assay
Settings: 0.4 nM Cbl-b, 150 nM BODIPY probe
Summary of the method: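 Compound competes with BODIPY probe (150 nM) for biotinylated Cbl-b (0.4 nM) in HEPES/NaCl/Triton/TCEP/BSA buffer; 60 min preincubation, 15 min with probe, room temperature. Tb-streptavidin HTRF read; % displacement vs DMSO and no-protein controls, IC50 from four-parameter fit.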

T1 sequence (Q13191 whole entry, species assumed): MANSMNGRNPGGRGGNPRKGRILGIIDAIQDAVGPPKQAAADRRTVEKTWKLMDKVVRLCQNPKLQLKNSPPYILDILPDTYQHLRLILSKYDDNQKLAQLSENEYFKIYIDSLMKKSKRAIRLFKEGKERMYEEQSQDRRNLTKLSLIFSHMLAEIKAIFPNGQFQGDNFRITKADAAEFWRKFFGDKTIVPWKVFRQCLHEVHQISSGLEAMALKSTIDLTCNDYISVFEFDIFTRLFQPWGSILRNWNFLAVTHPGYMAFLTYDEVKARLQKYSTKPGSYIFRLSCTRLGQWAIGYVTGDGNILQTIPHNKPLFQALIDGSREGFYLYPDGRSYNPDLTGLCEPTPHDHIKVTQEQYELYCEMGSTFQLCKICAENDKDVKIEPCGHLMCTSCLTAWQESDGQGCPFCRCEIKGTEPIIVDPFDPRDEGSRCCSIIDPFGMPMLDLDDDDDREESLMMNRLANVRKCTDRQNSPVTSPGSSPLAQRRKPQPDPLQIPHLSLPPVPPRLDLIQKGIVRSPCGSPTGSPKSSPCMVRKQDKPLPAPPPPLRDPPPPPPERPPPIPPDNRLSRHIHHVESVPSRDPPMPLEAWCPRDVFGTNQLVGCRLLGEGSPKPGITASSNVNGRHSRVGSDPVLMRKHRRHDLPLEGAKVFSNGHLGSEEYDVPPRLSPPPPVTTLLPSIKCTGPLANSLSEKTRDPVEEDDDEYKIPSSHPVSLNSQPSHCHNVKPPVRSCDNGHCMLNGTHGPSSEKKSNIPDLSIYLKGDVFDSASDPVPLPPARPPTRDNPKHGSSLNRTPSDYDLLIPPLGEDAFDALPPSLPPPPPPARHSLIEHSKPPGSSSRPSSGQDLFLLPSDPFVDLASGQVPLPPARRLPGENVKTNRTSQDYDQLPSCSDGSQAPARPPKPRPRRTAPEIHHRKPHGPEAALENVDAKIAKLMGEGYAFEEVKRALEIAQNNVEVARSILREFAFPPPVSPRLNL

IC50	Structure (SMILES)
< 100 nM	CO[C@@H](C)CNCc1cc(C(=O)Nc2cc(-c3ccc(Cl)cc3C(=O)N3CC(F)(F)C3)cc(OCC(F)F)n2)c(=O)n(C2CC2)c1 [Example 162]
< 100 nM	CO[C@@H](C)CNCc1cc(C(=O)Nc2cc(-c3ccc(Cl)cc3C(=O)N3CC(F)(F)C3)cc(OCC(F)(F)F)n2)c(=O)n(C2CC2)c1 [Example 163]
< 100 nM	CCn1cc(CNCC(C)C)cc(C(=O)Nc2cc(-c3ccc(C#N)cc3C(=O)N3CC(F)(F)C3)cc(C3CC3)n2)c1=O [Example 168]
< 100 nM	CCn1cc(CNC[C@H](C)OC)cc(C(=O)Nc2cc(-c3ccc(C#N)cc3C(=O)N3CC(F)(F)C3)cc(C3CC3)n2)c1=O [Example 170]
< 100 nM	COC[C@H](C)NCc1cc(C(=O)Nc2cc(-c3ccc(C#N)cc3C(=O)N3CC(F)(F)C3)cc(C3CC3)n2)c(=O)n(C)c1 [Example 171]
< 100 nM	CO[C@@H](C)CNCc1cc(C(=O)Nc2cc(-c3ccc(C#N)cc3C(=O)N3CC(F)(F)C3)cc(C3CC3)n2)c(=O)n(CC(F)(F)F)c1 [Example 174]
< 100 nM	CC(C)CNCc1cc(C(=O)Nc2cc(-c3ccc(C#N)cc3C(=O)N3CC(F)(F)C3)cc(C3CC3)n2)c(=O)n(C)c1 [Example 175]
< 100 nM	CO[C@@H](C)CNCc1cc(C(=O)Nc2cc(-c3ccc(C#N)cc3C(=O)N3CC(F)(F)C3)cc(C3CC3)n2)c(=O)n(C)c1 [Example 178]
< 100 nM	CCOc1cc(-c2ccc(C#N)cc2C(=O)N2CC(F)(F)C2)cc(NC(=O)c2cc(CNC[C@H](C)OC)cn(C)c2=O)n1 [Example 181]
< 100 nM	CCNc1cc(-c2ccc(Cl)cc2C(=O)N2CC(F)(F)C2)cc(NC(=O)c2cc(CNCC(C)C)cn(C)c2=O)n1 [Example 184]
< 100 nM	COCCNCc1cc(C(=O)Nc2cc(-c3ccc(C#N)cc3C(=O)N3CC(F)(F)C3)cc(C3CC3)n2)c(=O)n(C)c1 [Example 187]
< 100 nM	CCn1cc(CNCC2CC2)cc(C(=O)Nc2cc(-c3ccc(C#N)cc3C(=O)N3CC(F)(F)C3)cc(C3CC3)n2)c1=O [Example 189]
< 100 nM	CO[C@@H](C)CNCc1cc(C(=O)Nc2cc(-c3ccc(C#N)cc3C(=O)N3CC(F)(F)C3)cc(N(C)C)n2)c(=O)n(C2CC2)c1 [Example 191]
< 100 nM	Cn1cc(CNCC2CC2)cc(C(=O)Nc2cc(-c3ccc(C#N)cc3C(=O)N3CC(F)(F)C3)cc(C3CC3)n2)c1=O [Example 192]
< 100 nM	CC(C)CNCc1cc(C(=O)Nc2cc(-c3ccc(C#N)cc3C(=O)N3CC(F)(F)C3)cc(N(C)C)n2)c(=O)n(C2CC2)c1 [Example 193]
< 100 nM	CO[C@@H](C)CNCc1cc(C(=O)Nc2cc(-c3ccc(C#N)cc3C(=O)N3CC(F)(F)C3)cc(OC3CC3)n2)c(=O)n(C2CC2)c1 [Example 195]
< 100 nM	CCOc1cc(-c2ccc(C#N)cc2C(=O)N2CC(F)(F)C2)cc(NC(=O)c2cc(CN[C@@H](C)C3CCC3)cn(C3CC3)c2=O)n1 [Example 196]
< 100 nM	CO[C@@H](C)CNCc1cc(C(=O)Nc2cc(-c3ccc(OC(F)F)cc3C(=O)N3CC(F)(F)C3)cc(OC(C)C)n2)c(=O)n(C2CC2)c1 [Example 197]
< 100 nM	CC(C)CNCc1cc(C(=O)Nc2cc(-c3c(F)cc(Cl)cc3C(=O)N3CC(F)(F)C3)cc(NC(C)C)n2)c(=O)n(C2CC2)c1 [Example 201]

Second part, the molecule before the results:

Structure (SMILES)	IC50
CO[C@@H](C)CNCc1cc(C(=O)Nc2cc(-c3ccc(Cl)cc3C(=O)N3CC(C#N)C3)cc(C3CC3)n2)c(=O)n(C2CC2)c1 [Example 155, N-(4-{4-Chloro-2-[(3-cyano-1-azetidinyl)carbonyl]phenyl}-6-cyclopropyl-2-pyridyl)-1-cyclopropyl-5-{[(S)-2-methoxypropylamino]methyl}-2-oxo-1,2-dihydronicotinamide]	< 100 nM
CO[C@@H](C)CNCc1cc(C(=O)Nc2cc(-c3ccc(Cl)cc3C(=O)N3CCC3)cc(C3CC3)n2)c(=O)n(C2CC2)c1 [Example 156, N-(4-{2-[(1-Azetidinyl)carbonyl]-4-chlorophenyl}-6-cyclopropyl-2-pyridyl)-1-cyclopropyl-5-{[(S)-2-methoxypropylamino]methyl}-2-oxo-1,2-dihydronicotinamide]	< 100 nM
CO[C@@H](C)CNCc1cc(C(=O)Nc2cc(-c3ccc(Cl)cc3C(=O)N3CC(C(F)(F)F)C3)cc(C3CC3)n2)c(=O)n(C2CC2)c1 [Example 157, N-[4-(4-Chloro-2-{[3-(trifluoromethyl)-1-azetidinyl]carbonyl}phenyl)-6-cyclopropyl-2-pyridyl]-1-cyclopropyl-5-{[(S)-2-methoxypropylamino]methyl}-2-oxo-1,2-dihydronicotinamide]	< 100 nM
CO[C@@H](C)CNCc1cc(C(=O)Nc2cc(-c3ccc(Cl)cc3C(=O)N3CC(C)(F)C3)cc(C3CC3)n2)c(=O)n(C2CC2)c1 [Example 158, N-(4-{4-Chloro-2-[(3-fluoro-3-methyl-1-azetidinyl)carbonyl]phenyl}-6-cyclopropyl-2-pyridyl)-1-cyclopropyl-5-{[(S)-2-methoxypropylamino]methyl}-2-oxo-1,2-dihydronicotinamide]	< 100 nM
CO[C@@H](C)CNCc1cc(C(=O)Nc2cc(-c3ccc(Cl)cc3C(=O)N3CC(C)C3)cc(C3CC3)n2)c(=O)n(C2CC2)c1 [Example 159, N-(4-{4-Chloro-2-[(3-methyl-1-azetidinyl)carbonyl]phenyl}-6-cyclopropyl-2-pyridyl)-1-cyclopropyl-5-{[(S)-2-methoxypropylamino]methyl}-2-oxo-1,2-dihydronicotinamide]	< 100 nM
CO[C@@H](C)CNCc1cc(C(=O)Nc2cc(-c3ccc(Cl)cc3C(=O)N3CC4(COC4)C3)cc(C3CC3)n2)c(=O)n(C2CC2)c1 [Example 160, N-(4-{4-Chloro-2-[(2-oxa-6-aza-6-spiro[3.3]heptyl)carbonyl]phenyl}-6-cyclopropyl-2-pyridyl)-1-cyclopropyl-5-{[(S)-2-methoxypropylamino]methyl}-2-oxo-1,2-dihydronicotinamide]	< 100 nM
CO[C@@H](C)CNCc1cc(C(=O)Nc2cc(-c3ccc(Cl)cc3C(=O)N(C)C)cc(C3CC3)n2)c(=O)n(C2CC2)c1 [Example 161, N-{4-[4-Chloro-2-(N,N-dimethylcarbamoyl)phenyl]-6-cyclopropyl-2-pyridyl}-1-cyclopropyl-5-{[(S)-2-methoxypropylamino]methyl}-2-oxo-1,2-dihydronicotinamide]	< 100 nM
O=C(Nc1cc(-c2ccc(OC(F)F)cc2C(=O)N2CC(F)(F)C2)cc(OCC(F)F)n1)c1cc(CNC[C@@H]2CCCO2)cn(C2CC2)c1=O [Example 164]	< 100 nM
O=C(Nc1cc(-c2ccc(OC(F)F)cc2C(=O)N2CC(F)(F)C2)cc(OCC(F)F)n1)c1cc(CNC[C@@H]2COCCO2)cn(C2CC2)c1=O [Example 165]	< 100 nM
Cc1ccc(-c2cc(NC(=O)c3cc(CNC[C@@H]4CCCO4)cn(C4CC4)c3=O)nc(OCC(F)F)c2)c(C(=O)N2CC(F)(F)C2)c1 [Example 166]	< 100 nM
C[C@H](NCc1cc(C(=O)Nc2cc(-c3ccc(C#N)cc3C(=O)N3CC(F)(F)C3)cc(C3CC3)n2)c(=O)n(C)c1)C1CCC1 [Example 167]	< 100 nM
CO[C@@H](C)CNCc1cc(C(=O)Nc2cc(-c3ccc(Cl)cc3C(=O)N3CC(F)(F)C3)cc(NC(C)C)n2)c(=O)n(C)c1 [Example 169]	< 100 nM
CCNc1cc(-c2ccc(Cl)cc2C(=O)N2CC(F)(F)C2)cc(NC(=O)c2cc(CNC[C@H](C)OC)cn(C)c2=O)n1 [Example 172]	< 100 nM
Cn1cc(CNC[C@@H]2CCCO2)cc(C(=O)Nc2cc(-c3ccc(C#N)cc3C(=O)N3CC(F)(F)C3)cc(C3CC3)n2)c1=O [Example 173]	< 100 nM
CO[C@@H](C)CNCc1cc(C(=O)Nc2cc(-c3ccc(OC(F)F)cc3C(=O)N3CC(F)(F)C3)cc(C3CC3)n2)c(=O)n(C)c1 [Example 176]	< 100 nM
CO[C@@H](C)CNCc1cc(C(=O)Nc2cc(-c3c(F)cc(Cl)cc3C(=O)N3CC(F)(F)C3)cc(C3CC3)n2)c(=O)n(C)c1 [Example 177]	< 100 nM
N#Cc1ccc(-c2cc(NC(=O)c3cc(CNC[C@@H]4CCCO4)cn(CC(F)(F)F)c3=O)nc(C3CC3)c2)c(C(=O)N2CC(F)(F)C2)c1 [Example 179]	< 100 nM
CCOc1cc(-c2ccc(Cl)cc2C(=O)N2CC(F)(F)C2)cc(NC(=O)c2cc(CNC[C@H](C)OC)cn(C)c2=O)n1 [Example 180]	< 100 nM
CCNc1cc(-c2ccc(Cl)cc2C(=O)N2CC(F)(F)C2)cc(NC(=O)c2cc(CNC[C@@H]3CCCO3)cn(C)c2=O)n1 [Example 182]	< 100 nM
CCOc1cc(-c2ccc(C#N)cc2C(=O)N2CC(F)(F)C2)cc(NC(=O)c2cc(CNC[C@@H]3CCCO3)cn(C)c2=O)n1 [Example 183]	< 100 nM
Cn1cc(CNC[C@@H]2CCCO2)cc(C(=O)Nc2cc(-c3ccc(OC(F)F)cc3C(=O)N3CC(F)(F)C3)cc(C3CC3)n2)c1=O [Example 185]	< 100 nM
CCn1cc(CNC[C@@H]2CCCO2)cc(C(=O)Nc2cc(-c3ccc(C#N)cc3C(=O)N3CC(F)(F)C3)cc(C3CC3)n2)c1=O [Example 186]	< 100 nM
C[C@H](NCc1cc(C(=O)Nc2cc(-c3ccc(C#N)cc3C(=O)N3CC(F)(F)C3)cc(C3CC3)n2)c(=O)n(CC(F)(F)F)c1)C1CC1 [Example 188]	< 100 nM
Cn1cc(CNC[C@@H]2CCCCO2)cc(C(=O)Nc2cc(-c3ccc(C#N)cc3C(=O)N3CC(F)(F)C3)cc(C3CC3)n2)c1=O [Example 190]	< 100 nM
COCCNCc1cc(C(=O)Nc2cc(-c3ccc(C#N)cc3C(=O)N3CC(F)(F)C3)cc(C3CC3)n2)c(=O)n(CC(F)(F)F)c1 [Example 194]	< 100 nM
CO[C@@H](C)CNCc1cc(C(=O)Nc2cc(-c3c(F)cc(Cl)cc3C(=O)N3CC(F)(F)C3)cc(NC(C)C)n2)c(=O)n(C2CC2)c1 [Example 198]	< 100 nM
CCOc1cc(-c2c(F)cc(Cl)cc2C(=O)N2CC(F)(F)C2)cc(NC(=O)c2cc(CNC[C@H](C)OC)cn(C3CC3)c2=O)n1 [Example 199]	< 100 nM
CC(C)Nc1cc(-c2c(F)cc(Cl)cc2C(=O)N2CC(F)(F)C2)cc(NC(=O)c2cc(CN[C@@H](C)C3CCC3)cn(C3CC3)c2=O)n1 [Example 200]	< 100 nM
